{"source": "paper PMC7347570", "about": "“A new functional JAZ degron sequence in strawberry JAZ1 revealed by structural and interaction studies on the COI1–JA-Ile/COR–JAZs complexes” (Scientific Reports, 2020)", "assay_in_all_cases": "yeast two-hybrid (GAL4), COR-dependent growth", "type_in_all_cases": "cell-based", "key": {"AtCOI1–FaJAZ10": {"biological_target": "T1, AtCOI1–FaJAZ10 (Arabidopsis thaliana; Fragaria x ananassa, UniProt A0A290U478+O04197)", "T1 construct": "gene COI1; mixed-species complex; Saccharomyces cerevisiae AH109", "T1 sequence (O04197 whole entry)": "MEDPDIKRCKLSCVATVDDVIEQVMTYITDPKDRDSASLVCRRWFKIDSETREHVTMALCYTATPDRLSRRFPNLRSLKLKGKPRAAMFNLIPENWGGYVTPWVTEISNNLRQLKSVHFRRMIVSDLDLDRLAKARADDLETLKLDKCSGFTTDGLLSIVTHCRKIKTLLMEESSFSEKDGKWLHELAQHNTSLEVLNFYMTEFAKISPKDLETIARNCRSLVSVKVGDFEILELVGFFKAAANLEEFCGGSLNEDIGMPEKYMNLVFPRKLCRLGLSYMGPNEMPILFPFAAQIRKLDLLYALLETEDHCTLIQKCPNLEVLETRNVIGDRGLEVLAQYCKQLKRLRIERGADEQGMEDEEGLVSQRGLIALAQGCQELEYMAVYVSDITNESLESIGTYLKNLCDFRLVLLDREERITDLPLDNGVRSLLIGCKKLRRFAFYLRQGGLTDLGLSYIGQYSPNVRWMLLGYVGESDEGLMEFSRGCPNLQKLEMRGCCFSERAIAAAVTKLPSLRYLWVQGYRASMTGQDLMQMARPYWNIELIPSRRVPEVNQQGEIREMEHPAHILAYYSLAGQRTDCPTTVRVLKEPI", "T1 sequence (A0A290U478 entry or part of it)": "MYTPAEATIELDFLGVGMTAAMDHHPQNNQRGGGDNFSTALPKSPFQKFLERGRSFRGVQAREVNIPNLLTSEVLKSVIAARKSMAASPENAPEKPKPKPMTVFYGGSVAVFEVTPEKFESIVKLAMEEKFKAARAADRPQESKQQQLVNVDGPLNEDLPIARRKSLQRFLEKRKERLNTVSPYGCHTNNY", "conditions": "50 µM COR; 28 °C, 5 days; JAZ co-receptor"}, "AtCOI1 with AtJAZ1": {"biological_target": "T2, AtCOI1 with AtJAZ1 (Arabidopsis thaliana, UniProt O04197+Q9LMA8)", "T2 construct": "gene COI1; Saccharomyces cerevisiae AH109; degron LPIARR", "T2 sequence (Q9LMA8 whole entry)": "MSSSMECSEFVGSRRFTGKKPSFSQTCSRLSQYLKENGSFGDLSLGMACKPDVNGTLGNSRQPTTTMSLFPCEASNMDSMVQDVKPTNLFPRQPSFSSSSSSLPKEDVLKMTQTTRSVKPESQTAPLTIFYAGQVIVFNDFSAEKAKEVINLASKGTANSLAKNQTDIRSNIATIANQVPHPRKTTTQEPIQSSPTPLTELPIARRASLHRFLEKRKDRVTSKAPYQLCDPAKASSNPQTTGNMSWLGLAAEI", "T2 sequence (O04197 whole entry)": "as the sequence (O04197 whole entry) above", "conditions": "50 µM COR; 28 °C, 5 days; JAZ co-receptor"}, "FaCOI1–FaJAZ10": {"biological_target": "T3, FaCOI1–FaJAZ10 (Fragaria x ananassa, UniProt A0A290U3W5+A0A290U478)", "T3 construct": "gene COI1; Saccharomyces cerevisiae AH109; degron LPIARR", "T3 sequence (A0A290U3W5 entry or part of it)": "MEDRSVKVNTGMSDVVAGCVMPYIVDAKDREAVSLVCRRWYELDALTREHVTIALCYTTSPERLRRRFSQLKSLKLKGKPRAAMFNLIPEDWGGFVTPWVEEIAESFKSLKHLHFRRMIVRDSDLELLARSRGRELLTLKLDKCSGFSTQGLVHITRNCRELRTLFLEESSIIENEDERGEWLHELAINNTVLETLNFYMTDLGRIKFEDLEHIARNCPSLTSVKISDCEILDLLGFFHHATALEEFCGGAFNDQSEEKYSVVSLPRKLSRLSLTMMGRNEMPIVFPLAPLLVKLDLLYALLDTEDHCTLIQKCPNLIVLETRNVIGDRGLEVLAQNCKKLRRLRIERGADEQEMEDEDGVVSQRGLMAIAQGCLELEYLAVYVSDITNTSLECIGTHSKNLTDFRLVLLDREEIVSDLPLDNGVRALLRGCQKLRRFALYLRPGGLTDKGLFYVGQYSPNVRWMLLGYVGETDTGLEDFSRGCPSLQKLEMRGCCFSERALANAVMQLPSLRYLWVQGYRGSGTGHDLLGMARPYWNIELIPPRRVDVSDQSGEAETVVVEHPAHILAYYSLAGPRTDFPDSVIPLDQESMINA", "T3 sequence (A0A290U478 entry or part of it)": "as the sequence (A0A290U478 entry or part of it) above", "conditions": "50 µM COR; 28 °C, 5 days; SD-Leu-Trp-His selection; JAZ co-receptor"}, "AtJAZ9 and FaCOI1": {"biological_target": "T4, AtJAZ9 and FaCOI1 (Fragaria x ananassa; Arabidopsis thaliana, UniProt A0A290U3W5+Q8W4J8)", "T4 construct": "gene COI1; mixed-species complex; Saccharomyces cerevisiae AH109", "T4 sequence (Q8W4J8 whole entry)": "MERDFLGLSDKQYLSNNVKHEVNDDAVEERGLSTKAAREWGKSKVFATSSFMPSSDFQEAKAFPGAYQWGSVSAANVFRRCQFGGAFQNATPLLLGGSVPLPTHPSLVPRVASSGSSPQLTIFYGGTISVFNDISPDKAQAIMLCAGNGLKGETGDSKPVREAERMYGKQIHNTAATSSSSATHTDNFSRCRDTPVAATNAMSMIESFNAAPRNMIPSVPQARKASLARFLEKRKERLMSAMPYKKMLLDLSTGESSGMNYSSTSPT", "T4 sequence (A0A290U3W5 entry or part of it)": "as the sequence (A0A290U3W5 entry or part of it) above", "conditions": "50 µM COR; 28 °C, 5 days; JAZ co-receptor"}, "AtCOI1 with AtJAZ9": {"biological_target": "T5, AtCOI1 with AtJAZ9 (Arabidopsis thaliana, UniProt O04197+Q8W4J8)", "T5 construct": "gene COI1; Saccharomyces cerevisiae AH109; degron VPQARK", "T5 sequence (O04197 whole entry)": "as the sequence (O04197 whole entry) above", "T5 sequence (Q8W4J8 whole entry)": "as the sequence (Q8W4J8 whole entry) above", "conditions": "50 µM COR; 28 °C, 5 days; JAZ co-receptor"}, "FaCOI1–FaJAZ1": {"biological_target": "T6, FaCOI1–FaJAZ1 (Fragaria x ananassa, UniProt A0A290U0M9+A0A290U3W5)", "T6 construct": "gene COI1; Saccharomyces cerevisiae AH109; native degron IPMQRK", "T6 sequence (A0A290U0M9 entry or part of it)": "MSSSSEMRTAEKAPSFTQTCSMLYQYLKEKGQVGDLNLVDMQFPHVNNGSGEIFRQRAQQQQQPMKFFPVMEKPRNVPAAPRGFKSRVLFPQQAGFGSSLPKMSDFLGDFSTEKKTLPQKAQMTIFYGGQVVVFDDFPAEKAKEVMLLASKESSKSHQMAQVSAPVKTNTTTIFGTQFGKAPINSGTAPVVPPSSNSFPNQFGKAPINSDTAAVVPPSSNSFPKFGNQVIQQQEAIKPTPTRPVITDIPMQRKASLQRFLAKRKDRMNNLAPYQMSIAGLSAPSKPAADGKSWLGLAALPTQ", "T6 sequence (A0A290U3W5 entry or part of it)": "as the sequence (A0A290U3W5 entry or part of it) above", "conditions": "50 µM COR; 28 °C, 5 days; growth on SD-Leu-Trp-His and SD-Leu-Trp-His-Ade; JAZ co-receptor"}, "AtCOI1–FaJAZ1": {"biological_target": "T7, AtCOI1–FaJAZ1 (Arabidopsis thaliana; Fragaria x ananassa, UniProt A0A290U0M9+O04197)", "T7 construct": "gene COI1; mixed-species complex; Saccharomyces cerevisiae AH109", "T7 sequence (A0A290U0M9 entry or part of it)": "as the sequence (A0A290U0M9 entry or part of it) above", "T7 sequence (O04197 whole entry)": "as the sequence (O04197 whole entry) above", "conditions": "50 µM COR; 28 °C, 5 days; JAZ co-receptor"}}}
{"compound": "CC[C@H]1C=C(C(=O)N[C@@]2(C(=O)O)C[C@@H]2CC)[C@H]2CCC(=O)[C@H]2C1", "note": "[coronatine]", "values": [{"measurement": "yeast two-hybrid (GAL4), COR-dependent growth", "setting": "AtCOI1–FaJAZ10", "result": "both FaJAZ1 and FaJAZ10 interacted with AtCOI1 in restrictive media and supplemented with COR"}, {"measurement": "yeast two-hybrid (GAL4), COR-dependent growth", "setting": "AtCOI1 with AtJAZ1", "result": "AtJAZ1 and AtJAZ9 interacted with AtCOI1 which was observed by colony growth"}, {"measurement": "yeast two-hybrid (GAL4), COR-dependent growth", "setting": "FaCOI1–FaJAZ10", "result": "FaJAZ1 and FaJAZ10 interacted with FaCOI1 in a COR-dependent manner"}, {"measurement": "yeast two-hybrid (GAL4), COR-dependent growth", "setting": "AtJAZ9 and FaCOI1", "result": "only a positive interaction between AtJAZ9 and FaCOI1 promoted by COR was observed"}, {"measurement": "yeast two-hybrid (GAL4), COR-dependent growth", "setting": "AtCOI1 with AtJAZ9", "result": "AtJAZ1 and AtJAZ9 interacted with AtCOI1 which was observed by colony growth"}, {"measurement": "yeast two-hybrid (GAL4), COR-dependent growth", "setting": "FaCOI1–FaJAZ1", "result": "FaJAZ1 and FaJAZ10 interacted with FaCOI1 in a COR-dependent manner"}, {"measurement": "yeast two-hybrid (GAL4), COR-dependent growth", "setting": "AtCOI1–FaJAZ1", "result": "both FaJAZ1 and FaJAZ10 interacted with AtCOI1 in restrictive media and supplemented with COR"}]}
